Structures are written as SMILES. Bounds are passed on as bounds.

Usually EC50 stands for the concentration needed to bring the measured effect to its halfway point.

The target in this assay is T1, human GLP-1 (Homo sapiens, UniProt P43220).
T1 construct: expressed in transfected cells
T1 sequence (P43220 24-463): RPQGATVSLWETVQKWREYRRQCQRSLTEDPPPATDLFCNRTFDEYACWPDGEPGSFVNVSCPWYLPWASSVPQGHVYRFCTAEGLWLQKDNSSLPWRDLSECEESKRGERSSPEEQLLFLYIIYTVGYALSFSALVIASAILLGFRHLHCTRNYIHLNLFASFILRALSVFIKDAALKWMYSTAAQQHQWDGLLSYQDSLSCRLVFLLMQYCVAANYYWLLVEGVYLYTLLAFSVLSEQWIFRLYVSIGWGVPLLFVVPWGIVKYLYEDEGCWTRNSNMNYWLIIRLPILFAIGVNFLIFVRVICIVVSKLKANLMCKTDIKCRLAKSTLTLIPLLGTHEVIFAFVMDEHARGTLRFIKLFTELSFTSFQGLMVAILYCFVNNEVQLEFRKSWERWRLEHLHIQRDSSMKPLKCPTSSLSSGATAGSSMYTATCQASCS
Description: h-GLP-1 activity assay (Cisbio cAMP Gs dynamic kit, HTRF). Type of assay: cell-based. Particulars: HEK293 cells with stable expression of human GLP-1, relative EC50, 10 nM human GLP-1 = 100% response. How it is done: Human GLP-1 agonizing activity was detected in HEK293 cells with stable expression of human GLP-1 by Cisbio cAMP Gs dynamic kit (Catalog #62AM4PEC) according to manufacturer's protocol. Briefly, cells were collected and resuspended in assay buffer containing 0.1% BSA and 0.5 mM of IBMX at concentration to 2.5×10^5 cells/mL. Two μL 5× compound solution and 8 μL cell suspension were added to each well of low-volume 384 white assay plate. After 30 min incubation at 37° C., 5 μL cAMP-d2 working solution and 5 μL anti-cAMP antibody-cryptate were added to each well, and incubate at room temperature for 1 hr. Series dilution of cAMP was used as standard. Human GLP-1 (7-37) was used as positive control and 10 nM human GLP-1 was set as 100% response. HTRF signals were read at 665 and 615 nm with EnVision plate reader and calculated cAMP concentration by intrapolation to the standard curve. The EC50 value of the tested compounds was calculated by fitting the dose response curve using a 4-parameter non-linear regression routine and relative EC50 was presented in Table S.
`C[C@@]1(c2ccc(Cl)cn2)Oc2cccc(N3CC=C(Cc4nc5ccc(C(=O)O)cc5n4C[C@@H]4CCO4)CC3)c2O1` (single isomer, unassigned) [Compound 77]: the EC50 was below 20 nM.
Molecule `CN1C(=O)C(c2ccc(Cl)cc2F)Oc2c(C3CCN(Cc4nc5ccc(C(=O)O)cc5n4C[C@@H]4CCO4)CC3)cccc21` (mixture of isomers) [Compound 105, 2-((4-(2-(4-chloro-2-fluorophenyl)-4-methyl-3-oxo-3,4-dihydro-2H-benzo[b][1,4]oxazin-8-yl)piperidin-1-yl)methyl)-1-(((S)-oxetan-2-yl)methyl)-1H-benzo[d]imidazole-6-carboxylic acid] had an EC50 above 100 nM.
As for `C[C@@]1(c2ccc(Cl)cc2F)Oc2cccc(-c3ccc(Cc4nc5ccc(C(=O)O)cc5n4C[C@@H]4CCO4)cc3)c2O1` (single isomer, unassigned) [Compound 3], the figure is above 100 nM.
With `C[C@@]1(c2ccc(Cl)cc2F)Oc2cccc(C3CCN(Cc4nc5ccc(C(=O)NS(=O)(=O)C6CC6)cc5n4C[C@@H]4CCO4)CC3)c2O1` (single isomer, unassigned) [Compound 24] the figure was below 20 nM; with `CC1(c2ccc(C(F)(F)F)cc2F)Oc2cccc(-c3ccc(Cc4nc5ccc(C(=O)O)cc5n4C[C@@H]4CCO4)cc3)c2O1` (mixture of isomers) [Compound 26, 2-(4-(2-(2-fluoro-4-(trifluoromethyl)phenyl)-2-methylbenzo[d][1,3]dioxol-4-yl)benzyl)-1-(((S)-oxetan-2-yl)methyl)-1H-benzo[d]imidazole-6-carboxylic acid], below 20 nM.
As for `C[C@]1(c2ccc(Cl)cn2)Oc2cccc(C3=CC[C@H](Cc4nc5ccc(C(=O)O)cc5n4Cc4cncs4)OC3)c2O1` (single isomer, unassigned) [Compound 112], the figure is below 20 nM; as for `C[C@]1(c2ccc(Cl)cc2F)Oc2cccc(C3=CC[C@H](Cc4nc5ccc(C(=O)O)cc5n4C[C@@H]4CCO4)OC3)c2O1` (single isomer, unassigned) [Compound 107], above 100 nM.
For the molecule `C[C@@]1(c2ccc(Cl)cc2F)Oc2cccc(C3CCN(Cc4nc5ccc(-c6noc(=O)[nH]6)cc5n4C[C@@H]4CCO4)CC3)c2O1` (single isomer, unassigned) [Compound 37], the EC50 was below 20 nM.
With `N#Cc1ccc(COc2cccc([C@@H]3CC[C@@H](Cc4nc5ccc(C(=O)O)cc5n4C[C@@H]4CCO4)OC3)n2)c(F)c1` (single isomer, unassigned) [Compound 31] the figure was below 20 nM.
In turn, `O=C(O)c1ccc2nc(CC3CC(c4cccc(OCc5ccc(Cl)cc5F)n4)CO3)n(C[C@@H]3CCO3)c2c1` (mixture of isomers) [Compound 71, 2-((4-(6-((4-chloro-2-fluorobenzyl)oxy)pyridin-2-yl)tetrahydrofuran-2-yl)methyl)-1-(((S)-oxetan-2-yl)methyl)-1H-benzo[d]imidazole-6-carboxylic acid] had an EC50 above 100 nM.
As for `CC1(c2ccc(Cl)cc2F)Oc2cccc(C3=CCC(Cc4nc5ccc(C(=O)O)cc5n4C[C@@H]4CCO4)OC3)c2O1` (mixture of isomers) [Compound 61, 2-((5-(2-(4-chloro-2-fluorophenyl)-2-methylbenzo[d][1,3]dioxol-4-yl)-3,6-dihydro-2H-pyran-2-yl)methyl)-1-(((S)-oxetan-2-yl)methyl)-1H-benzo[d]imidazole-6-carboxylic acid], the figure is below 20 nM.
With `C[C@@]1(c2ccc(Cl)cn2)Oc2cccc(C3CC4CC3CN4Cc3nc4ccc(C(=O)O)cc4n3C[C@@H]3CCO3)c2O1` (single isomer, unassigned) [Compound 74] the figure was above 100 nM; with `O=C(O)c1ccc2nc(CN3CCC(c4cccc5c4CC(c4ccc(Cl)cn4)O5)CC3)n(C[C@@H]3CCO3)c2c1` (mixture of isomers) [Compound 27, 2-((4-(2-(5-chloropyridin-2-yl)-2,3-dihydrobenzofuran-4-yl)piperidin-1-yl)methyl)-1-(((S)-oxetan-2-yl)methyl)-1H-benzo[d]imidazole-6-carboxylic acid], above 100 nM.
As for `C[C@@]1(c2ccc(C(F)(F)F)cn2)Oc2cccc(C3=CCC(Cc4nc5ccc(C(=O)O)cc5n4C[C@@H]4CCO4)OC3)c2O1` (single isomer, unassigned) [Compound 121], the figure is below 20 nM; as for `C[C@]1(c2ccc(Cl)cn2)Oc2cccc(C3=CC[C@@H](Cc4nc5c(F)cc(C(=O)O)cc5n4Cc4cscn4)OC3)c2O1` (single isomer, unassigned) [Compound 117], above 100 nM.
The molecule `CC1(c2ccc(Cl)cc2F)Oc2cccc(-c3nc(Cc4nc5ccc(C(=O)O)cc5n4C[C@@H]4CCO4)cs3)c2O1` (mixture of isomers) [Compound 25, 2-((2-(2-(4-chloro-2-fluorophenyl)-2-methylbenzo[d][1,3]dioxol-4-yl)thiazol-4-yl)methyl)-1-(((S)-oxetan-2-yl)methyl)-1H-benzo[d]imidazole-6-carboxylic acid] yielded an EC50 above 100 nM.
With `C[C@@]1(c2ccc(Cl)cn2)Oc2cccc(-c3ccc(Cc4nc5ccc(C(=O)O)cc5n4C[C@@H]4CCO4)cc3)c2O1` (single isomer, unassigned) [Compound 41] the figure was above 100 nM; with `C[C@@]1(c2ccc(Cl)cc2F)Oc2cccc(-c3ccc(Cc4nc5ccc(C(=O)O)cc5n4C[C@@H]4CCO4)nc3)c2O1` (single isomer, unassigned) [Compound 4], above 100 nM; with `C[C@]1(c2ccc(Cl)cn2)Oc2cccc(C3=CC[C@@H](Cc4nc5ccc(C(=O)O)cc5n4Cc4cscn4)OC3)c2O1` (single isomer, unassigned) [Compound 115], above 100 nM.
With `CC1(c2ccc(Cl)cc2F)Oc2cccc(C3CCC(Cc4nc5ccc(C(=O)O)cc5n4C[C@@H]4CCO4)OC3)c2O1` (mixture of isomers) [Compound 56, 2-((5-(2-(4-chloro-2-fluorophenyl)-2-methylbenzo[d][1,3]dioxol-4-yl)tetrahydro-2H-pyran-2-yl)methyl)-1-(((S)-oxetan-2-yl)methyl)-1H-benzo[d]imidazole-6-carboxylic acid] the figure was below 20 nM; with `C[C@@]1(c2ccc(Cl)cn2)Oc2cccc(C3(F)CCN(Cc4nc5ccc(C(=O)O)cc5n4C[C@@H]4CCO4)CC3)c2O1` (single isomer, unassigned) [Compound 83], 20 to 100 nM; with `C[C@@]1(c2ccc(C3CC3)cn2)Oc2cccc(C3=CCC(Cc4nc5ccc(C(=O)O)cc5n4C[C@@H]4CCO4)OC3)c2O1` (single isomer, unassigned) [Compound 111], below 20 nM.
With `C[C@@]1(c2ccc(Cl)cn2)Oc2cccc(C3C4CN(Cc5nc6ccc(C(=O)O)cc6n5C[C@@H]5CCO5)CC43)c2O1` (single isomer, unassigned) [Compound 85] the figure was 20 to 100 nM; with `C[C@@]1(c2ccc(Cl)cn2)Oc2cccc([C@@H]3CC[C@H](Cc4nc5ccc(C(=O)O)cc5n4C[C@@H]4CCO4)OC3)c2O1` (single isomer, unassigned) [Compound 103], 20 to 100 nM.
As to `CC1(c2ccc(Cl)cc2F)Oc2cccc(-c3ccc(Cc4nc5ccc(C(=O)O)cc5n4C[C@@H]4CCO4)cc3)c2O1` (mixture of isomers) [Compound 15, 2-(4-(2-(4-chloro-2-fluorophenyl)-2-methylbenzo[d][1,3]dioxol-4-yl)benzyl)-1-(((S)-oxetan-2-yl)methyl)-1H-benzo[d]imidazole-6-carboxylic acid], the EC50 is below 20 nM.
With `CC1(c2ccc(Cl)cc2F)Oc2cccc(-c3cnc(Cc4nc5ccc(C(=O)O)cc5n4C[C@@H]4CCO4)nc3)c2O1` (mixture of isomers) [Compound 17, 2-((5-(2-(4-chloro-2-fluorophenyl)-2-methylbenzo[d][1,3]dioxol-4-yl)pyrimidin-2-yl)methyl)-1-(((S)-oxetan-2-yl)methyl)-1H-benzo[d]imidazole-6-carboxylic acid] the figure was below 20 nM; with `N#Cc1ccc(COc2cccc([C@H]3CC[C@@H](Cc4nc5ccc(C(=O)O)cc5n4C[C@@H]4CCO4)OC3)n2)c(F)c1` (single isomer, unassigned) [Compound 33], below 20 nM.
As for `C[C@]1(c2ccc(Cl)cn2)Oc2cccc(C3=CC[C@H](Cc4nc5ccc(C(=O)O)cc5n4Cc4cscn4)OC3)c2O1` (single isomer, unassigned) [Compound 114], the figure is 20 to 100 nM; as for `O=C(O)c1ccc2nc(CN3CCC(c4cccc5c4OC(c4ccc(Cl)cc4F)C(=O)N5)CC3)n(C[C@@H]3CCO3)c2c1` (mixture of isomers) [Compound 104, 2-((4-(2-(4-chloro-2-fluorophenyl)-3-oxo-3,4-dihydro-2H-benzo[b][1,4]oxazin-8-yl)piperidin-1-yl)methyl)-1-(((S)-oxetan-2-yl)methyl)-1H-benzo[d]imidazole-6-carboxylic acid], 20 to 100 nM; as for `C[C@]1(c2ccc(Cl)cc2F)Oc2cccc(C3=CC[C@@H](Cc4nc5ccc(C(=O)O)cc5n4C[C@@H]4CCO4)OC3)c2O1` (single isomer, unassigned) [Compound 101], 20 to 100 nM.
As for `O=C(O)c1ccc2nc(Cc3ccc(-c4cccc5c4NC(=O)C(c4ccc(Cl)cc4F)O5)cc3)n(C[C@@H]3CCO3)c2c1` (mixture of isomers) [Compound 42, 2-(4-(2-(4-chloro-2-fluorophenyl)-3-oxo-3,4-dihydro-2H-benzo[b][1,4]oxazin-5-yl)benzyl)-1-(((S)-oxetan-2-yl)methyl)-1H-benzo[d]imidazole-6-carboxylic acid], the figure is above 100 nM.
As to `C[C@@]1(c2ccc(Cl)cn2)Oc2cccc(C34CCN(Cc5nc6ccc(C(=O)O)cc6n5C[C@@H]5CCO5)CC3C4)c2O1` (single isomer, unassigned) [Compound 72], the EC50 is below 20 nM.

The values are drawn from patent publication US20220348564A1, “PHENYL-[1,3]DIOXOLO[4,5-C]PYRIDINYL-PHENYL-, PHENYL-[1,3]DIOXOLO[4,5-C]PYRIDINYL-HETEROARYL-, OR PHENYL-(1,3)DIOXO[4,5-C]PYRIDINYL-PIPERIDINYL-METHYL-OXETANYLMETHYL-1H-BENZO[D]IMIDAZOLE-CARBOXYLIC ACID DERIVATIVES AND METHODS OF USING SAME” (Eccogene (Shanghai) Co., Ltd., priority 2021, published 2022).
